Values after ≈ are worked out from the molar mass of the structure shown.
Columns and labels:
[1] = test system: Shigella flexneri; experiment: Inhibition of growth of Shigella flexneri (CN6007) measured as MIC compound/MIC Trimethoprim; type: functional
[2] = test system: Klebsiella pneumoniae; experiment: Inhibition of growth of Klebsiella pneumoniae (CN3632) measured as MIC compound/MIC Trimethoprim; type: functional
[3] = test system: Staphylococcus aureus; experiment: Inhibition of growth of Staphylococcus aureus (CN491) measured as MIC compound/MIC Trimethoprim; type: functional
[4] = test system: Klebsiella aerogenes; experiment: Inhibition of growth of Enterobacter aerogenes (2200/186) measured as MIC(compound/MIC Trimethoprim; type: functional
[5] = test system: Proteus vulgaris; experiment: Inhibition of growth of Proteus vulgaris (CN329) measured as MIC compound/MIC Trimethoprim; type: functional
[6] = test system: Escherichia coli; experiment: Inhibition of growth of Escherichia coli (CN314) measured as MIC compound/MIC Trimethoprim; type: functional
[7] = test system: Neisseria gonorrhoeae; experiment: Inhibition of growth of Neisseria gonorrhoeae; type: functional
[8] = test system: Vibrio cholerae; experiment: Inhibition of growth of Vibrio cholera (ATCC 14035) measured as MIC compound/MIC Trimethoprim; type: functional
[9] = target: T1, Dihydrofolate reductase (Rattus norvegicus, UniProt Q920D2); experiment: Inhibition of Rat liver Dihydrofolate reductase(DHFR); conditions: read-out: I50
T1 sequence (Q920D2 whole entry): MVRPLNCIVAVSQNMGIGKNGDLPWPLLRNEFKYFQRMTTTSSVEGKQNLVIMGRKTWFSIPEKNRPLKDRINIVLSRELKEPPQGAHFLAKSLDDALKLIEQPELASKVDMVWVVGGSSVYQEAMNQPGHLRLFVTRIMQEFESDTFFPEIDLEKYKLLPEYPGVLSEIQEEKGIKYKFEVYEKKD

[10] = test system: Proteus vulgaris; experiment: Inhibition of growth of Proteus vulgaris (CN329) was measured
[11] = test system: Shigella flexneri; experiment: Inhibition of growth of Shigella flexneri (CN6007) was measured
[12] = test system: Staphylococcus aureus; experiment: Inhibition of growth of Staphylococcus aureus (CN491) was measured
[13] = test system: Klebsiella pneumoniae; experiment: Inhibition of growth of Klebsiella pneumoniae (CN3632) was measured
[14] = test system: Escherichia coli; experiment: Inhibition of growth of Escherichia coli (CN314) was measured
[15] = test system: Salmonella
[16] = test system: Klebsiella aerogenes; experiment: microbe, parasite or virus in culture
Description: Inhibition of growth of Enterobacter aerogenes (2200/186) was measured

[17] = test system: Mycolicibacterium smegmatis; experiment: Inhibition of growth of Mycobacterium smegmatis (S3254) was measured
[18] = test system: Serratia marcescens; experiment: Inhibition of growth of Serratia marcescens (CN2398) was measured
[19] = test system: Vibrio cholerae; experiment: microbe, parasite or virus in culture; conditions: ATCC 14035
Description: Inhibition of growth of Vibrio cholera (ATCC 14035) was measured

Structure (SMILES) | MIC ratio [1] | MIC ratio [2] | MIC ratio [3] | MIC ratio [4] | MIC ratio [5] | MIC ratio [6] | MIC [7] | other results
CC(C)(C)c1cc(Cc2cnc(N)nc2N)cc(C(C)(C)C)c1O | > 1000 | > 1000 | 30 | > 1000 | > 1000 | > 1000 | 35 µM (≈ 11.5 µg/mL) | 
CCCc1cc(Cc2cnc(N)nc2N)cc(CCC)c1OC | 100 | 30 | 1 | 100 | 30 | 30 |  | MIC [8]: 10 µg/mL (≈ 31.8 µM)
CCCc1cc(Cc2cnc(N)nc2N)cc(CC)c1OC | 30 | 30 | 0.3 | 100 | 30 | 30 | 17.5 µM (≈ 5.26 µg/mL) | MIC [8]: 10 µg/mL (≈ 33.3 µM); IC50 [9]: 30 µM
COc1c(C)cc(Cc2cnc(N)nc2N)cc1C |  | 300 | 100 | 1000 | 300 | 1000 | 200 µM (≈ 51.7 µg/mL) | 
CCc1cc(Cc2cnc(N)nc2N)cc(C)c1OC | 30 | 30 | 3 | 30 | 3 | 30 | 140 µM (≈ 38.1 µg/mL) | 
C=CCc1cc(Cc2cnc(N)nc2N)cc(OC)c1OC |  |  |  |  |  |  | 110 µM (≈ 33 µg/mL) | 
COc1cc(Cc2cnc(N)nc2N)cc(OC)c1OC [TRIMETHOPRIM] |  |  |  |  |  |  | 240 µM (≈ 69.7 µg/mL) | MIC [10]: 1 µg/mL (≈ 3.44 µM); MIC [11]: 1 µg/mL (≈ 3.44 µM); MIC [12]: 1 µg/mL (≈ 3.44 µM); MIC [13]: 1 µg/mL (≈ 3.44 µM); MIC [14]: 1 µg/mL (≈ 3.44 µM); MIC [15]: 1 µg/mL (≈ 3.44 µM); MIC [16]: 1 µg/mL (≈ 3.44 µM); MIC [17]: 1 µg/mL (≈ 3.44 µM); MIC [18]: 1 µg/mL (≈ 3.44 µM); MIC [19]: 1 µg/mL (≈ 3.44 µM)
C=CCc1cc(Cc2cnc(N)nc2N)cc(CCC)c1O |  |  |  |  |  |  |  | IC50 [9]: 3.63 µM
C/C=C/c1cc(Cc2cnc(N)nc2N)cc(OC)c1OC |  |  |  |  |  |  | 110 µM (≈ 33 µg/mL) | 
CCc1cc(Cc2cnc(N)nc2N)cc(CC)c1O | 10 | 10 | 3 | 10 | 10 | 3 |  | MIC [8]: 1 µg/mL (≈ 3.67 µM)
CCOc1cc(Cc2cnc(N)nc2N)cc(OC)c1OC |  |  |  |  |  |  | 180 µM (≈ 54.8 µg/mL) | 
CCc1cc(Cc2cnc(N)nc2N)cc(C)c1O | 3 | 3 | 1 | 3 |  | 3 |  | 
CCCc1cc(Cc2cnc(N)nc2N)cc(CC)c1O | 3 | 3 | 0.3 | 10 | 3 | 10 | 9 µM (≈ 2.58 µg/mL) | MIC [8]: 1 µg/mL (≈ 3.49 µM)
COc1c(C)cc(Cc2cnc(N)nc2N)cc1C(C)(C)C | 300 | > 100 | 10 | 300 | > 30 | 100 |  | MIC [8]: 10 µg/mL (≈ 33.3 µM)
CCCc1cc(Cc2cnc(N)nc2N)cc(CCC)c1O | 10 | 30 | 0.3 | 30 | 30 | 10 |  | MIC [8]: 1 µg/mL (≈ 3.33 µM)
COc1c(C(C)(C)C)cc(Cc2cnc(N)nc2N)cc1C(C)(C)C |  | > 1000 | 30 | > 1000 | > 1000 | 10000 | 13 µM (≈ 4.45 µg/mL) | 
CCCc1cc(Cc2cnc(N)nc2N)cc(OC)c1OC |  |  |  |  |  |  | 54 µM (≈ 16.3 µg/mL) | 
COc1c(C(C)C)cc(Cc2cnc(N)nc2N)cc1C(C)C |  | > 1000 | 30 | > 1000 | > 1000 | 3000 |  | 
Cc1cc(Cc2cnc(N)nc2N)cc(C(C)(C)C)c1O | 30 | 100 | 3 | 100 | 100 | 100 |  | 
CCc1cc(Cc2cnc(N)nc2N)cc(CC)c1OC | 3 | 10 | 0.3 | 10 | 30 | 3 |  | 
Cc1cc(Cc2cnc(N)nc2N)cc(C)c1O |  | 3 | 10 | 1 | 3 | 10 |  | 
